Source: patent publication US10294202B2, “Pyrrolidinones as herbicides” (FMC Corporation, priority 2013, dated 2019)

Columns and labels:
pigweed = test: Test A pre-/postemergence herbicide test; type: in vivo, Amaranthus retroflexus
Procedure, shortened: (§1)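 Formulated compound (non-phytotoxic solvent, surfactant) sprayed pre- onto soil of seeded loam/sand pots or post- onto seedlings at 1–2 leaves; ~10 d greenhouse; 0–100 visual control rating versus untreated.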

sedge, umbrella = test: Test B flooded paddy test; type: in vivo, Cyperus difformis; settings: 1000 g ai/ha, Flood; scale of 0 to 100 where 0 is no effect and 100 is complete control
Procedure, shortened: (§2)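 Treatment was made at the 2-leaf stage by dosing the standing floodwater, kept 3 cm above soil level for the whole test. Greenhouse exposure lasted 13 to 15 days. Response is a visual percent rating relative to controls, where a dash indicates no test result.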

corn = test: Test A pre-/postemergence herbicide test; type: in vivo, Zea mays
Procedure, shortened: as §1

barnyardgrass [1] = test: Test A pre-/postemergence herbicide test; type: in vivo, Echinochloa crus-galli
Procedure, shortened: as §1

morningglory = test: Test A pre-/postemergence herbicide test; type: in vivo, Ipomoea spp.
Procedure, shortened: as §1

ducksalad = test: Test B flooded paddy test; type: in vivo, Heteranthera limosa; settings: 1000 g ai/ha, Flood; scale of 0 to 100 where 0 is no effect and 100 is complete control
Procedure, shortened: as §2

barnyardgrass [2] = test: Test B flooded paddy test; type: in vivo, Echinochloa crus-galli; settings: 1000 g ai/ha, Flood; scale of 0 to 100 where 0 is no effect and 100 is complete control
Procedure, shortened: as §2

wheat = test: Test A pre-/postemergence herbicide test; type: in vivo, Triticum aestivum
Procedure, shortened: as §1

velvetleaf = test: Test A pre-/postemergence herbicide test; type: in vivo, Abutilon theophrasti
Procedure, shortened: as §1

crabgrass, large = test: Test A pre-/postemergence herbicide test; type: in vivo, Digitaria sanguinalis
Procedure, shortened: as §1

giant foxtail = test: Test A pre-/postemergence herbicide test; type: in vivo, Setaria faberii
Procedure, shortened: as §1

rice = test: Test B flooded paddy test; type: in vivo, Oryza sativa; settings: 1000 g ai/ha, Flood; scale of 0 to 100 where 0 is no effect and 100 is complete control
Procedure, shortened: as §2

[3] = Postemergence, 125 g ai/ha, 0 to 100 scale, 0 is no effect, 100 is complete control
[4] = Postemergence, 500 g ai/ha, 0 to 100 scale (0 no effect, 100 complete control)
[5] = Preemergence, 125 g ai/ha, 0 to 100 scale where 0 is no effect and 100 is complete control
[6] = preemergence, 500 g ai/ha, 0 to 100 scale, 0 is no effect and 100 is complete control
[7] = Postemergence, 125 g ai/ha, visual rating on 0 to 100 scale (0 no effect, 100 complete control), approx. 10 days

| Structure (SMILES) | Plant response rating, Pigweed (pigweed; [4]) | Plant response rating, Pigweed (pigweed; [5]) | Plant response rating, Pigweed (pigweed; [6]) | Plant response rating, Sedge, Umbrella (sedge, umbrella) | Plant response rating, Corn (corn; [3]) | Plant response rating, Corn (corn; [4]) | Plant response rating, Corn (corn; [5]) | Plant response rating, Corn (corn; [6]) | Plant response rating, Barnyardgrass (barnyardgrass [1]; [3]) | Plant response rating, Barnyardgrass (barnyardgrass [1]; [4]) | Plant response rating, Barnyardgrass (barnyardgrass [1]; [5]) | Plant response rating, Barnyardgrass (barnyardgrass [1]; [6]) | Plant response rating, Morningglory (morningglory; [4]) | Plant response rating, Morningglory (morningglory; [5]) | Plant response rating, Morningglory (morningglory; [6]) | Plant response rating, Ducksalad (ducksalad) | Plant response rating, Barnyardgrass (barnyardgrass [2]) | Plant response rating, Wheat (wheat; [4]) | Plant response rating, Wheat (wheat; [5]) | Plant response rating, Wheat (wheat; [6]) | also measured |
| --- | --- | --- | --- | --- | --- | --- | --- | --- | --- | --- | --- | --- | --- | --- | --- | --- | --- | --- | --- | --- | --- |
| O=C1NCC(c2ccc(C(F)(F)F)cc2F)C1C(=O)Nc1ccccc1F (racemic) [Compound 259] | 0 | 0 | 0 | 10 | 0 | 0 | 0 | 0 | 50 | 70 | 10 | 80 | 0 | 0 | 0 | 90 | 20 | 0 | 0 | 0 | Plant response rating, Pigweed (pigweed; [3]): 0; Plant response rating, Morningglory (morningglory; [3]): 0; Plant response rating, Wheat (wheat; [3]): 0; Plant response rating, Velvetleaf (velvetleaf; [3]): 0; Plant response rating, Velvetleaf (velvetleaf; [4]): 0; Plant response rating, Velvetleaf (velvetleaf; [5]): 0; Plant response rating, Velvetleaf (velvetleaf; [6]): 0; Plant response rating, Crabgrass, Large (crabgrass, large; [3]): 80; Plant response rating, Crabgrass, Large (crabgrass, large; [4]): 90; Plant response rating, Crabgrass, Large (crabgrass, large; [6]): 90; Plant response rating, Foxtail, Giant (giant foxtail; [3]): 50; Plant response rating, Foxtail, Giant (giant foxtail; [4]): 70; Plant response rating, Foxtail, Giant (giant foxtail; [5]): 60; Plant response rating, Foxtail, Giant (giant foxtail; [6]): 90; Plant response rating, Rice (rice): 10 |
| O=C1NCC(c2ccc(C(F)(F)F)nc2)C1C(=O)Nc1ccccc1C(F)(F)F (racemic) [Compound 264] | 60 | 50 | 80 | 0 | 0 | 0 | 0 | 0 | 30 | 80 | 50 | 90 | 0 | 0 | 0 | 100 | 0 | 0 | 0 | 0 | Plant response rating, Velvetleaf (velvetleaf; [4]): 30; Plant response rating, Velvetleaf (velvetleaf; [5]): 0; Plant response rating, Velvetleaf (velvetleaf; [6]): 0; Plant response rating, Crabgrass, Large (crabgrass, large; [3]): 80; Plant response rating, Crabgrass, Large (crabgrass, large; [4]): 90; Plant response rating, Crabgrass, Large (crabgrass, large; [5]): 100; Plant response rating, Crabgrass, Large (crabgrass, large; [6]): 100; Plant response rating, Foxtail, Giant (giant foxtail; [3]): 60; Plant response rating, Foxtail, Giant (giant foxtail; [4]): 80; Plant response rating, Foxtail, Giant (giant foxtail; [5]): 80; Plant response rating, Foxtail, Giant (giant foxtail; [6]): 90; Plant response rating, Rice (rice): 0 |
| O=C1NCC(c2ccc(Cl)c(C(F)(F)F)c2)C1C(=O)Nc1cccc(F)c1F (racemic) [Compound 268] | 80 | 30 | 60 | 0 | 0 | 40 | 0 | 80 | 50 | 70 | 70 | 80 | 0 | 0 | 60 | 100 | 0 | 0 | 0 | 0 | Plant response rating, Pigweed (pigweed; [7]): 50; Plant response rating, Morningglory (morningglory; [7]): 20; Plant response rating, Wheat (wheat; [7]): 0; Plant response rating, Velvetleaf (velvetleaf; [5]): 0; Plant response rating, Velvetleaf (velvetleaf; [6]): 0; Plant response rating, Crabgrass, Large (crabgrass, large; [3]): 70; Plant response rating, Crabgrass, Large (crabgrass, large; [4]): 80; Plant response rating, Crabgrass, Large (crabgrass, large; [5]): 80; Plant response rating, Crabgrass, Large (crabgrass, large; [6]): 90; Plant response rating, Foxtail, Giant (giant foxtail; [3]): 80; Plant response rating, Foxtail, Giant (giant foxtail; [4]): 90; Plant response rating, Foxtail, Giant (giant foxtail; [5]): 70; Plant response rating, Foxtail, Giant (giant foxtail; [6]): 80; Plant response rating, Rice (rice): 20 |
